What was measured:
A549-derived xenografts = assay: A549 xenograft combination study; assay type: in vivo, mouse; conditions: single agent (AS1410 1 mg/kg or cisplatin 6 mg/kg), after approximately 60 days
Procedure: AS1410 was reconstituted in 0.9% saline B.P. to the required final concentration (0.331 and 0.0993) mg/ml of AS1410 succinate salt for intravenous administration).
The xenografts were prepared from the lung carcinoma A549 (ATCC Number CCL-185). Cells were grown in accordance with standard operating procedures and established methodology for this cell line to provide 5×10^6 cells per mouse.
A549-derived xenografts were established in 50 female nu/nu MF1 mice respectively by subcutaneous injection into the right flank of each mouse (5×10^6 cells in 100 μl phosphate buffered saline).
Animals were checked regularly until visible tumours appeared. Tumours were then measured in accordance with the relevant SOP regularly and tumour volume calculated using the formula: […]
Once the tumours were established, the mice were allocated into groups of 9 mice using a randomization procedure based on stratified xenograft volume.
Day 0 is defined as the day on which the average tumour volume is between 0.04 to 0.1 cm^3. Relative tumour volume on Day 0 is defined as 1.
Each mouse was observed and tumours measured until the xenografts tripled (3V0) in volume compared with volume on the day of treatment (V0). The elapsed period is the volume tripling time (VTT).
AS1410 was given by slow bolus intravenous injection. For AS1410 a dose volume 5 μl/g bodyweight was used. Control mice were untreated. […]

human telomerase = conditions: Read et al. 2001; Harrison et al. 2003; Schultes et al. 2004; cited from earlier work

Structure (SMILES) | relative tumour volume (A549-derived xenografts) | in vitro inhibitory activity against human telomerase (human telomerase)
N.N.[Cl][Pt][Cl] [cisplatin, cis-diaminedichloroplatinum(II)] | about 5 | 
Nc1ccc(Nc2c3ccc(NC(=O)CCN4CCCC4)cc3nc3cc(NC(=O)CCN4CCCC4)ccc23)cc1 [BR-ACO-20] |  | potent in vitro inhibitory activity

Source: patent publication US20080319001A1, “Cancer Treatment Using Specific 3,6,9-Substituted Acridines” (priority 2005, published 2008)
